Test results published in patent US6545007B2, “Methods for inhibiting the transmission of HIV using topically applied substituted 6-benzyl-4-oxopyrimidines” (Idenix (Cayman) Limited, priority 2000, dated 2003).
pEC50: −log10 of the molar value.

Tests used:
[1] = system: HIV-1 (IIIB strain); type: cell-based; settings: for pEC50: anti-HIV-1 activity, HIV-1-infected MT-4 cells; for SI: selectivity index (CC50/EC50)
Method: Compounds. Compounds were solubilized in DMSO at 200 mM and then diluted into culture medium.
(§1) Cells and viruses. MT-4, C8166,H9/IIIB and CEM cells were grown at 37° C. in a 5% CO2 atmosphere in RPMI 1640 medium, supplemented with 10% fetal calf serum (FCS), 100 IU/mL penicillin and 100 μg/mL streptomycin. Cell cultures were checked periodically for the absence of mycoplasma contamination with a MycoTect Kit (Gibco). Human immunodeficiency virus type-I (HIV-1, IIIB strain) was obtained from supernatants of persistently infected H9/IIIB cells.
HIV Titration. Titration of HIV was performed in C8166 cells by the standard limiting dilution method (dilution 1:2, four replica wells per dilution) in 96-well plates. The infectious virus titre was determined by light microscope scoring of cytopathicity after 4 days of incubation and the virus titres were expressed as CCID50/mL.
(§2) Anti-HIV Assays. Activity of the compounds against HIV-1 and HIV-2 multiplication in acutely infected cells was based on the inhibition of virus-induced cytopathicity in MT-4 and C8166 cells, respectively. Briefly, 50 μL of culture medium containing 1×10^4 cells were added to each well of flat-bottom microtiter trays containing 50 μl of culture medium with or without various concentrations of the test compounds. Then 20 μL of an HIV suspension containing 100 CCID50 were added. After a 4-day incubation at 37° C., the number of viable cells was determined by the 3-(4,5-dimethylthiazol-[…])-2,5-diphenyltetrazolium bromide (MTT) method. Cytotoxicity of the compounds was evaluated in parallel with their antiviral activity. It was based on the viability of mock-infected cells, as monitored by the MTT method.

[2] = system: mock-infected MT-4 cells; experiment: Cytotoxicity: viability of mock-infected cells by the MTT method; type: cell-based, human
Method: as §1, §2

SMILES | pEC50 [1] | SI [1] | CC50 [2] [µM]
Cc1c(Cc2c(Cl)cccc2Cl)nc(SC2CCCCC2)[nH]c1=O [MC 917] | 4.66 | >9 | > 200
CCC(C)Sc1nc(Cc2ccc(F)cc2)c(C)c(=O)[nH]1 (stereo not drawn) [MC 919] | 4.96 | 9.5 | 105
CCCCSc1nc(Cc2c(Cl)cccc2Cl)c(C)c(=O)[nH]1 [MC 920] | 5.93 | >171 | > 200
Cc1c(Cc2c(F)cccc2F)nc(SCC(C)C)[nH]c1=O [MC 921] | 7.00 | 640 | 64
Cc1c(Cc2c(F)cccc2F)nc(SC2CCCC2)[nH]c1=O [MC 922] | 7.10 | >2,500 | > 200
Cc1c(Cc2c(F)cccc2F)nc(SC2CCCCC2)[nH]c1=O [MC 923] | 7.05 | >2,222 | > 200
CCC(C)Sc1nc(Cc2ccc([N+](=O)[O-])cc2)c(C)c(=O)[nH]1 (stereo not drawn) [MC 924] | 5.70 | >100 | > 200
CCC(C)Sc1nc(Cc2cccc([N+](=O)[O-])c2)c(C)c(=O)[nH]1 (stereo not drawn) [MC 925] | 6.46 | >571 | > 200
CCC(C)Nc1nc(Cc2c(F)cccc2F)cc(=O)[nH]1 (stereo not drawn) [MC 945] | 6.89 | >1,540 | > 200
CCC(C)Sc1nc(Cc2ccccc2OC)cc(=O)[nH]1 (stereo not drawn) [MC 952] | 5.71 | >208 | > 200
CCC(C)Sc1nc(Cc2cccc(OC)c2)cc(=O)[nH]1 (stereo not drawn) [MC 957] | 5.92 | >166 | > 200
CCC(C)Sc1nc(Cc2ccc(C(F)(F)F)cc2)cc(=O)[nH]1 (stereo not drawn) [MC 959] | 4.60 | 8 | 200
CCC(C)Sc1nc(Cc2ccc(N)cc2)cc(=O)[nH]1 (stereo not drawn) [MC 960] | 4.64 | >8 | > 200
CCC(C)Sc1nc(Cc2ccc(OC)cc2)cc(=O)[nH]1 (stereo not drawn) [MC 964] | 4.85 | 10.5 | 147
CCC(c1cc(=O)[nH]c(SC(C)C)n1)c1cccc2ccccc12 (stereo not drawn) [MC 969] | 5.82 | 33.3 | 50
CC(C)Sc1nc(C(C)c2cccc3ccccc23)cc(=O)[nH]1 (stereo not drawn) [MC 971] | 5.96 | 108 | 119
CC(c1cc(=O)[nH]c(SC2CCCC2)n1)c1cccc2ccccc12 (stereo not drawn) [MC 972] | 6.30 | 186 | 93
CCC(c1cc(=O)[nH]c(SC2CCCC2)n1)c1cccc2ccccc12 (stereo not drawn) [MC 973] | 5.52 | 17 | 51
CC(c1cc(=O)[nH]c(SC2CCCCC2)n1)c1cccc2ccccc12 (stereo not drawn) [MC 974] | 6.85 | 321.4 | 45
CCC(c1cc(=O)[nH]c(SC2CCCCC2)n1)c1cccc2ccccc12 (stereo not drawn) [MC 975] | 6.74 | 94 | 16.9
CC(C)Nc1nc(Cc2c(F)cccc2F)cc(=O)[nH]1 [MC 979] | 6.42 | >526 | > 200
CC(c1cc(=O)[nH]c(SC2CCCC2)n1)c1c(Cl)cccc1Cl (stereo not drawn) [MC 996] | 6.00 | 78.3 | 78.3
CCC(c1cc(=O)[nH]c(SC2CCCC2)n1)c1c(Cl)cccc1Cl (stereo not drawn) [MC 1002] | 6.00 | 23.4 | 23.4

Second part, led by results:

pEC50 [1] | SMILES | SI [1] | CC50 [2] [µM]
5.50 | O=c1cc(Cc2c(F)cccc2F)nc(NC2CC2)[nH]1 [MC 980] | >63 | > 200
6.40 | CCC(c1cc(=O)[nH]c(SC(C)C)n1)c1c(Cl)cccc1Cl (stereo not drawn) [MC 1000] | >500 | > 200
5.92 | CC(C)Sc1nc(C(C)c2c(Cl)cccc2Cl)cc(=O)[nH]1 (stereo not drawn) [MC 1001] | 97.5 | 117
5.44 | CCC(c1cc(=O)[nH]c(SC2CCCCC2)n1)c1c(Cl)cccc1Cl (stereo not drawn) [MC 1003] | >55.5 | > 200
7.10 | CCC(c1cc(=O)[nH]c(SC(C)C)n1)c1c(F)cccc1F (stereo not drawn) [MC 1005] | 875 | 70
6.82 | CCC(c1cc(=O)[nH]c(SC2CCCC2)n1)c1c(F)cccc1F (stereo not drawn) [MC 1006] | 1,333 | 200
7.30 | CC(C)Sc1nc(C(C)c2c(F)cccc2F)cc(=O)[nH]1 (stereo not drawn) [MC 1007] | 3,340 | 167
7.52 | CC(c1cc(=O)[nH]c(SC2CCCC2)n1)c1c(F)cccc1F (stereo not drawn) [MC 1008] | >6,666 | > 200
6.80 | CC(c1cc(=O)[nH]c(SC2CCCCC2)n1)c1c(F)cccc1F (stereo not drawn) [MC 1013] | >1,250 | > 200
7.30 | CCC(c1cc(=O)[nH]c(SC2CCCCC2)n1)c1c(F)cccc1F (stereo not drawn) [MC 1014] | 2,600 | 130
5.54 | CC(c1cc(=O)[nH]c(SC2CCCCC2)n1)c1c(Cl)cccc1Cl (stereo not drawn) [MC 1016] | >69 | > 200
7.05 | O=c1cc(Cc2c(F)cccc2F)nc(NC2CCCC2)[nH]1 [MC 1022] | >2,222 | > 200
6.70 | CCc1c(Cc2c(F)cccc2F)nc(SC(C)C)[nH]c1=O [MC 1037] | 326 | 65
7.00 | CCc1c(Cc2c(F)cccc2F)nc(SC(C)CC)[nH]c1=O (stereo not drawn) [MC 1038] | >2,000 | > 200
6.40 | CC(C)Sc1nc(Cc2c(F)cccc2F)c(C(C)C)c(=O)[nH]1 [MC 1039] | >500 | > 200
5.85 | CCC(C)Sc1nc(Cc2cc(F)cc(F)c2)cc(=O)[nH]1 (stereo not drawn) [MC 1041] | >143 | > 200
6.10 | COCCNc1nc(Cc2c(F)cccc2F)cc(=O)[nH]1 [MC 1043] | >250 | > 200
7.30 | CC(C)CSc1nc(C(C)c2c(F)cccc2F)cc(=O)[nH]1 (stereo not drawn) [MC 1044] | >4,000 | > 200
7.15 | CCCCSc1nc(C(C)c2c(F)cccc2F)cc(=O)[nH]1 (stereo not drawn) [MC 1045] | 2,857 | > 200
7.52 | CC(c1cc(=O)[nH]c(NC2CCCC2)n1)c1c(F)cccc1F (stereo not drawn) [MC 1048] | 2,500 | 75
6.85 | O=c1cc(Cc2c(F)cccc2F)nc(NC2CCCCC2)[nH]1 [MC 1049] | 471 | 66
7.70 | Cc1c(Cc2c(F)cccc2F)nc(NC2CCCC2)[nH]c1=O [MC 1050] | >10,000 | > 200
7.40 | CSc1nc(C(C)c2c(F)cccc2F)c(C)c(=O)[nH]1 (stereo not drawn) [MC 1060] | >5,000 | > 200
7.00 | CCCCNc1nc(Cc2c(F)cccc2F)cc(=O)[nH]1 [MC 1077] | 1,000 | 100
6.96 | CCCNc1nc(Cc2c(F)cccc2F)cc(=O)[nH]1 [MC 1078] | 1,818 | 200
